How the values were obtained:
[1] = tested on: cocaine-dependent or binge eating animals; details: cited from earlier work
mice = experiment: Motivation to drink alcohol: progressive nose-poke test in IntelliCages; format: in vivo; details: 10 mg/kg bw intraperitoneal, 20% alcohol, attempts measured over 20 hours, 3 tests, Fig. 5
Method: The effect of RO5256390 administration on motivation to drink alcohol was also assessed experimentally. In this experiment a new group of animals was used, these were 13 animals that underwent a three-month adaptive training to drink alcohol (20%) in IntelliCages. The motivation to drink alcohol was then assessed for each animal by conducting 3 tests. For the purposes of the test, the IntelliCage was designed in such a way that access to alcohol for a given animal was only possible, with a certain number of so-called "nose-pokes", meaning cutting the laser beam with the snout when trying to reach the alcohol bottle. In order to drink alcohol, the animal must first cut the beam twice, then 4, 8, 12, 16 times etc. After the required number of nose-pokes are made, the alcohol-blocking door opens. The more attempts to get into the alcohol bottle and the greater the number of beam intersection events achieved, the greater the motivation to drink alcohol. Each test started when half of the water bottles was replaced with 20% alcohol bottles. During the next 20 hours the number of drinking attempts was measured for each animal. After 3 series of motivational tests, which were carried out at weekly intervals, the animals were divided into two experimental groups. […]

animal models = experiment: Toxicity in animal models; format: in vivo
Method: (§1) The compound of Formula II is additionally easy to prepare and formulate (well soluble in a solution of 5% ethanol and 10% collyphor for an exemplary dose of 10 mg/kg body weight in an intraperitoneal administration), it appears to be non-toxic in animal models.

C57BL/6 mouse = experiment: Amount of alcohol (20%) consumed by alcohol-trained mice in IntelliCages after intraperitoneal injection; format: in vivo; details: versus vehicle control group
Method: The study involved 30 C57BL/6 mouse subjects that had undergone a two-month, earlier adaptive training to drink alcohol (20%) in IntelliCages (Fig. 1), under typical living conditions (temperature: 21-23°C, humidity 50-60%, 12/12 light-dark cycle). During the adaptive training, the mice had constant access to food and water except for: • 1. 25 days, during which, 2 hours after the beginning of the dark phase, all water bottles were replaced for 3 hours with bottles containing 20% alcohol (no access to clean water at all). • 2. 15 days, during which, 2 hours after the beginning of the dark phase, half of the water bottles were replaced for 3 hours with bottles containing 20% alcohol (possibility to choose water or alcohol). […]
During the adaptive training, the amount of alcohol consumed was recorded for each animal separately. […] The degree of preference for drinking alcohol was determined according to the following criteria: • high-drinkers: on average from 100 to 200 licks of alcohol, with a choice between water and alcohol (3 hour session); • medium-drinkers: on average from 50 to 100 licks of alcohol, with a choice between water and alcohol; (3 hour session); • low-drinkers: on average from 0 to 50 licks of alcohol, with a choice between water and alcohol; (3 hour session); […]

[2] = Solubility in the injection vehicle; format: physicochemical; details: solution of 5% ethanol and 10% collyphor, for an exemplary dose of 10 mg/kg body weight, intraperitoneal administration
Method: as §1

In the case of `CC[C@@H](C[C@H]1COC(N)=N1)c1ccccc1` [RO5256390], the suppressing compulsive behavior [1] is listed as “effective in suppressing compulsive behavior”, the “motivation to drink alcohol (number of alcohol drinking attempts)” value (mice) is listed as “reduces the motivation to drink alcohol” and the toxicity (animal models) is listed as “non-toxic”. For the same compound, the “amount of consumed alcohol during 20 hours after injection” value (C57BL/6 mouse; 10 mg/kg bw intraperitoneal, 20% alcohol, Fig. 3) was “statistically significant lower amount of alcohol”, the “amount of consumed alcohol in the 20 hours post injection after a 10 day abstinence period” value (C57BL/6 mouse; access to alcohol blocked for 10 days, treated as previously (10 mg/kg bw i.p.), Fig. 4) was “statistically significantly lower amount of alcohol” and the solubility [2] was “well soluble”.

From patent EP3928777A1, “4,5-DIHYDRO-OXAZOL-2-YLAMINE DERIVATIVES FOR USE IN THE PREVENTION OR TREATMENT OF ALCOHOL USE DISORDER” (Instytut Biologii Doswiadczalnej im. Marcelego Nenckiego …, priority 2020, dated 2021)
